From patent US7223403B2, “Method to prepare compositions comprising yeast treated with electromagnetic energy” (Ultra Biotech Limited, priority 2003, dated 2007)
Where two headings read alike, the source gives them in different places.

What was measured:
[1] = system: Wistar King rat brain cancer cell line WKS-1; settings: 2VCR 4.5 mg/kg/day i.v.; for Number of live animals remaining in the groups after 30 days of treatment: 30 rats per group
Procedure: The survival time of rats after tumor injection and treatment was studied.
(§1) The biological composition comprising 10^8 cells per ml of activated and conditioned yeast cells of the strain Saccharomyces cerevisiae Hansen strain AS2.501 was prepared by the methods described in Section 5.1 and subsections therein.
The animals were prepared in a similar manner as described in Section 8.1.
(§2) The rats injected with tumor cells were immediately divided into 4 experimental groups of ten rats per group and one control group. The four experimental groups were triplicated (i.e., using a total of 120 rats in the experimental groups). In group 2AY, the rats received 1.2 ml of the biological composition once per day. In group 2NY, the rats received 1.2 ml of the untreated yeast cells once per day. In group 2VCR, the rats were injected intravenously with 4.5 mg of vinblastine (VCR) per kg body weight per day. In group 2CK1, the rats received 1.2 ml of physiological saline once per day.
(§3) The rats received the biological compositions, untreated yeast cells, VCR, or saline on the same day as the tumor cells were transplanted. The rats in group 2CK2 also started receiving saline on the same day as the other four groups. The biological compositions, untreated yeast cells and saline were administered orally by a feeding tube and the VCR by intravenous injection for 30 consecutive days. The rats were observed over 6 months from the day of tumor inoculation and survival was recorded. The weight of the rats and the weight of the tumor were determined by standard techniques.

[2] = system: Wistar King rat brain cancer cell line WKS-1; experiment: Wistar rat model of human brain cancer, growth of the tumor (Example 8); format: in vivo; settings: WKS-1 tumor-bearing rats, 30 consecutive days of treatment, sacrificed on 31st day; AY/NY 0.8 ml oral once per day, VCR 3 mg/kg/day i.v.
Procedure: The growth of the tumor in the rats was studied.
About 2×10^7 viable tumor cells of the Wistar King rat brain cancer type WKS-1 (obtainable from the Shanghai Medical University, Shanghai, China) in about 0.4 ml culture suspension were injected subcutaneously into the animals.
In group AY, the rats received 0.8 ml of the biological composition once per day. In group NY, the rats received 0.8 ml of the untreated yeast cells once per day. […] In group CK1, the rats received 0.8 ml of physiological saline once per day.
On the 31st day from tumor inoculation, the rats were sacrificed.

[3] = system: kun ming murine brain cancer cell line B22; experiment: kun ming mouse model of human brain cancer, growth of the tumor (Example 6); settings: B22 tumor-bearing mice, 30 consecutive days of treatment, sacrificed on 31st day; AY/NY 0.3 ml oral once per day, BCNU 0.8 mg/kg/day s.c.
Procedure: as §1
The mice injected with tumor cells were immediately divided into 4 experimental groups of ten mice per group and one control group. The four experimental groups were triplicated (i.e., using a total of 120 mice in the experimental groups).
as §3, with “mice” for “rats”, “BCNU” for “VCR,”, “CK2” for “2CK2”, “BCNU” for “VCR”, “subcutaneous” for “intravenous”, “The rats were observed over 6 months from the day of tumor inoculation and survival was recorded.” left out

[4] = system: kun ming murine brain cancer cell line B22; settings: 2BCNU 1.2 mg/kg/day s.c.; for Number of live animals remaining in the groups after 30 days of treatment: 30 mice per group
Procedure: The survival time of mice after tumor injection and treatment was studied.
as §1
The animals were prepared in a similar manner as described in Section 6.1.
as §2, with “mice” for “rats”, “0.5” for “1.2”, “2BCNU,” for “2VCR,”, “subcutaneously” for “intravenously”, “1.2” for “4.5”, “chloroethylnitrosourea (BCNU)” for “vinblastine (VCR)”
as §3, with “mice” for “rats”, “BCNU” for “VCR,”, “BCNU” for “VCR”, “subcutaneous” for “intravenous”

[5] = rats that survived, observed over 6 months, 2AY/2NY 1.2 ml oral per day, 30 days
[6] = mice that survived, observed over 6 months, 2AY/2NY 0.5 ml oral per day, 30 days

Compound: CC[C@]1(O)C[C@@H]2CN(CCc3c([nH]c4ccccc34)[C@@](C(=O)OC)(c3cc4c(cc3OC)N(C)[C@H]3[C@@](O)(C(=O)OC)[C@H](OC(C)=O)[C@]5(CC)C=CCN6CC[C@]43[C@@H]65)C2)C1 [VCR, vinblastine]
- Number of live animals remaining in the groups after 30 days of treatment ([1]; 0 month after cessation of treatment, 2AY/2NY 1.2 ml oral per day): 30
- Number of live animals remaining in the groups after 30 days of treatment ([1]; 1 month after cessation of treatment, 2AY/2NY 1.2 ml oral per day): 30
- survival outcome during the experiment ([1]; 2NY 1.2 ml oral per day, 30 days, observed over 6 months): all died during the experiment
- Number of live animals remaining in the groups after 30 days of treatment ([1]; 2 months after cessation of treatment, 2AY/2NY 1.2 ml oral per day): 30
- Number of live animals remaining in the groups after 30 days of treatment ([1]; 3 months after cessation of treatment, 2AY/2NY 1.2 ml oral per day): 17
- Number of live animals remaining in the groups after 30 days of treatment ([1]; 4 months after cessation of treatment, 2AY/2NY 1.2 ml oral per day): 7
- Number of live animals remaining in the groups after 30 days of treatment ([1]; 5 months after cessation of treatment, 2AY/2NY 1.2 ml oral per day): 3
- Number of live animals remaining in the groups after 30 days of treatment ([1]; 6 months after cessation of treatment, 2AY/2NY 1.2 ml oral per day): 0
- mean weight of rats and standard deviation [1, 5]: all animals dead
- mean weight of tumor nodules and standard deviation [1, 5]: all animals dead
- mean weight of rats and standard deviation [2]: 188.3 ± 8.3 g
- mean weight of tumor nodules and standard deviation [2]: 2.87 ± 2.54 g

Compound: O=NN(CCCl)C(=O)NCCCl [BCNU, chloroethylnitrosourea]
- mean weight of mice and standard deviation [3]: 18.4 ± 3.4 g
- mean weight of tumor nodules and standard deviation [3]: 1.02 ± 0.52 mg
- Number of live animals remaining in the groups after 30 days of treatment ([4]; 0 month after cessation of treatment, 2AY/2NY 0.5 ml oral per day): 30
- Number of live animals remaining in the groups after 30 days of treatment ([4]; 1 month after cessation of treatment, 2AY/2NY 0.5 ml oral per day): 21
- survival outcome during the experiment ([4]; 2NY 0.5 ml oral per day, 30 days, observed over 6 months): all died during the experiment
- Number of live animals remaining in the groups after 30 days of treatment ([4]; 2 months after cessation of treatment, 2AY/2NY 0.5 ml oral per day): 15
- Number of live animals remaining in the groups after 30 days of treatment ([4]; 3 months after cessation of treatment, 2AY/2NY 0.5 ml oral per day): 4
- Number of live animals remaining in the groups after 30 days of treatment ([4]; 4 months after cessation of treatment, 2AY/2NY 0.5 ml oral per day): 0
- Number of live animals remaining in the groups after 30 days of treatment ([4]; 5 months after cessation of treatment, 2AY/2NY 0.5 ml oral per day): 0
- Number of live animals remaining in the groups after 30 days of treatment ([4]; 6 months after cessation of treatment, 2AY/2NY 0.5 ml oral per day): 0
- mean weight of mice and standard deviation [4, 6]: all animals dead
- mean weight of tumor nodules and standard deviation [4, 6]: all animals dead
